# Laboratory results published in PubChem BioAssay (NCI).
#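 Values below derive from 48-hour exposures of cells grown in 96-well plates, with endpoints linearly interpolated between the two concentrations bracketing the appropriate inhibition level. Definition used: TGI = concentration required for complete inhibition of growth.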
# Experiments:
# Assay in all cases: NCI anticancer screen, dose series, 48 h
# IGROV1 ovarian = test system: IGROV1 ovarian
# ACHN renal = test system: ACHN renal
# LOX IMVI melanoma = test system: LOX IMVI melanoma
# MDA-MB-231 breast = test system: MDA-MB-231 breast
# NCI-H460 lung = test system: NCI-H460 lung
# SF-295 CNS = test system: SF-295 CNS
# K-562 leukemia = test system: K-562 leukemia
# MALME-3M melanoma = test system: MALME-3M melanoma
# MOLT-4 leukemia = test system: MOLT-4 leukemia
# BT-549 breast = test system: BT-549 breast
# COLO 205 colon = test system: COLO 205 colon
# SF-268 CNS = test system: SF-268 CNS
# OVCAR-4 ovarian = test system: OVCAR-4 ovarian
# A549 NSCLC = test system: A549 NSCLC
# CAKI-1 renal = test system: CAKI-1 renal
# SW-620 colon = test system: SW-620 colon
# EKVX NSCLC = test system: EKVX NSCLC
# A498 renal = test system: A498 renal
# OVCAR-8 ovarian = test system: OVCAR-8 ovarian
# MDA-N = test system: MDA-N
# HS 578T breast = test system: HS 578T breast
# MDA-MB-435 = test system: MDA-MB-435
# HCC-2998 colon = test system: HCC-2998 colon
# PC-3 prostate = test system: PC-3 prostate
# HL-60(TB) leukemia = test system: HL-60(TB) leukemia
# U251 CNS = test system: U251 CNS
# OVCAR-3 ovarian = test system: OVCAR-3 ovarian
# MCF7 breast = test system: MCF7 breast
# TK-10 renal = test system: TK-10 renal
# NCI/ADR-RES ovarian = test system: NCI/ADR-RES ovarian
# SNB-19 CNS = test system: SNB-19 CNS
# NCI-H23 lung = test system: NCI-H23 lung
# RXF 393 renal = test system: RXF 393 renal
# SR leukemia = test system: SR leukemia
# UACC-62 melanoma = test system: UACC-62 melanoma
# DU-145 prostate = test system: DU-145 prostate
# 786-0 renal = test system: 786-0 renal
# HOP-92 NSCLC = test system: HOP-92 NSCLC
# SK-MEL-5 melanoma = test system: SK-MEL-5 melanoma
# UO-31 renal = test system: UO-31 renal
# SK-MEL-28 melanoma = test system: SK-MEL-28 melanoma
# SNB-75 CNS = test system: SNB-75 CNS
# HCT-15 colon = test system: HCT-15 colon
# T-47D breast = test system: T-47D breast
# HT29 colon = test system: HT29 colon
# HCT-116 colon = test system: HCT-116 colon
# UACC-257 melanoma = test system: UACC-257 melanoma
# SN12C renal = test system: SN12C renal
# HOP-62 NSCLC = test system: HOP-62 NSCLC
# SF-539 CNS = test system: SF-539 CNS
# NCI-H522 lung = test system: NCI-H522 lung
# SK-MEL-2 melanoma = test system: SK-MEL-2 melanoma
# CCRF-CEM leukemia = test system: CCRF-CEM leukemia
# M14 melanoma = test system: M14 melanoma
# OVCAR-5 ovarian = test system: OVCAR-5 ovarian
# SK-OV-3 ovarian = test system: SK-OV-3 ovarian
# KM12 colon = test system: KM12 colon
# KM20L2 colon = test system: KM20L2 colon
# DMS 114 small cell lung = test system: DMS 114 small cell lung
# HOP-18 NSCLC = test system: HOP-18 NSCLC
# RPMI-8226 leukemia = test system: RPMI-8226 leukemia
# DMS 273 small cell lung = test system: DMS 273 small cell lung
# SNB-78 CNS = test system: SNB-78 CNS
# NCI-H226 lung = test system: NCI-H226 lung
# LXFL 529 NSCLC = test system: LXFL 529 NSCLC
# DLD-1 colon = test system: DLD-1 colon
compound,measurement,setting,value
CCOP(=O)(OCC)Oc1c(OC)c2[nH]c(C(=O)OC)cc2c2c(C(=O)O)c[nH]c12,TGI,IGROV1 ovarian,> 100 µM
same,TGI,ACHN renal,> 100 µM
same,TGI,LOX IMVI melanoma,> 100 µM
same,TGI,MDA-MB-231 breast,> 100 µM
same,TGI,NCI-H460 lung,> 100 µM
same,TGI,SF-295 CNS,> 100 µM
same,TGI,K-562 leukemia,> 100 µM
same,TGI,MALME-3M melanoma,> 100 µM
same,TGI,MOLT-4 leukemia,> 100 µM
same,TGI,BT-549 breast,> 100 µM
same,TGI,COLO 205 colon,> 100 µM
same,TGI,SF-268 CNS,> 100 µM
same,TGI,OVCAR-4 ovarian,> 100 µM
same,TGI,A549 NSCLC,> 100 µM
same,TGI,CAKI-1 renal,> 100 µM
same,TGI,SW-620 colon,> 100 µM
same,TGI,EKVX NSCLC,> 100 µM
same,TGI,A498 renal,> 100 µM
same,TGI,OVCAR-8 ovarian,> 100 µM
same,TGI,MDA-N,> 100 µM
same,TGI,HS 578T breast,> 100 µM
same,TGI,MDA-MB-435,> 100 µM
same,TGI,HCC-2998 colon,> 100 µM
same,TGI,PC-3 prostate,> 100 µM
same,TGI,HL-60(TB) leukemia,> 100 µM
same,TGI,U251 CNS,> 100 µM
same,TGI,OVCAR-3 ovarian,> 100 µM
same,TGI,MCF7 breast,> 100 µM
same,TGI,TK-10 renal,> 100 µM
same,TGI,NCI/ADR-RES ovarian,> 100 µM
same,TGI,SNB-19 CNS,> 100 µM
same,TGI,NCI-H23 lung,> 100 µM
same,TGI,RXF 393 renal,> 100 µM
same,TGI,SR leukemia,> 100 µM
same,TGI,UACC-62 melanoma,> 100 µM
same,TGI,DU-145 prostate,> 100 µM
same,TGI,786-0 renal,> 100 µM
same,TGI,HOP-92 NSCLC,> 100 µM
same,TGI,SK-MEL-5 melanoma,> 100 µM
same,TGI,UO-31 renal,> 100 µM
same,TGI,SK-MEL-28 melanoma,> 100 µM
same,TGI,SNB-75 CNS,> 100 µM
same,TGI,HCT-15 colon,> 100 µM
same,TGI,T-47D breast,> 100 µM
same,TGI,HT29 colon,> 100 µM
same,TGI,HCT-116 colon,> 100 µM
same,TGI,UACC-257 melanoma,> 100 µM
same,TGI,SN12C renal,> 100 µM
same,TGI,HOP-62 NSCLC,> 100 µM
same,TGI,SF-539 CNS,> 100 µM
same,TGI,NCI-H522 lung,> 100 µM
same,TGI,SK-MEL-2 melanoma,> 100 µM
same,TGI,CCRF-CEM leukemia,> 100 µM
same,TGI,M14 melanoma,> 100 µM
same,TGI,OVCAR-5 ovarian,> 100 µM
same,TGI,SK-OV-3 ovarian,> 100 µM
same,TGI,KM12 colon,81.3 µM
Nc1nc(=O)n(C2CCC(CO)O2)cc1F (configuration not stated),TGI,ACHN renal,> 100 µM
same,TGI,LOX IMVI melanoma,> 100 µM
same,TGI,NCI-H460 lung,> 100 µM
same,TGI,SF-295 CNS,> 100 µM
same,TGI,K-562 leukemia,> 100 µM
same,TGI,MALME-3M melanoma,> 100 µM
same,TGI,MOLT-4 leukemia,> 100 µM
same,TGI,COLO 205 colon,> 100 µM
same,TGI,KM20L2 colon,> 100 µM
same,TGI,SF-268 CNS,> 100 µM
same,TGI,DMS 114 small cell lung,> 100 µM
same,TGI,OVCAR-4 ovarian,> 100 µM
same,TGI,HOP-18 NSCLC,> 100 µM
same,TGI,A549 NSCLC,> 100 µM
same,TGI,RPMI-8226 leukemia,> 100 µM
same,TGI,DMS 273 small cell lung,> 100 µM
same,TGI,SNB-78 CNS,> 100 µM
same,TGI,CAKI-1 renal,> 100 µM
same,TGI,SW-620 colon,> 100 µM
same,TGI,EKVX NSCLC,> 100 µM
same,TGI,OVCAR-8 ovarian,> 100 µM
same,TGI,HCC-2998 colon,> 100 µM
same,TGI,HL-60(TB) leukemia,> 100 µM
same,TGI,U251 CNS,> 100 µM
same,TGI,OVCAR-3 ovarian,> 100 µM
same,TGI,TK-10 renal,> 100 µM
same,TGI,SNB-19 CNS,> 100 µM
same,TGI,NCI-H23 lung,> 100 µM
same,TGI,RXF 393 renal,> 100 µM
same,TGI,786-0 renal,> 100 µM
same,TGI,HOP-92 NSCLC,> 100 µM
same,TGI,SK-MEL-5 melanoma,> 100 µM
same,TGI,UO-31 renal,> 100 µM
same,TGI,SK-MEL-28 melanoma,> 100 µM
same,TGI,SNB-75 CNS,> 100 µM
same,TGI,HCT-15 colon,> 100 µM
same,TGI,HT29 colon,> 100 µM
same,TGI,UACC-257 melanoma,> 100 µM
same,TGI,SN12C renal,> 100 µM
same,TGI,HOP-62 NSCLC,> 100 µM
same,TGI,NCI-H226 lung,> 100 µM
same,TGI,NCI-H522 lung,> 100 µM
same,TGI,SK-MEL-2 melanoma,> 100 µM
same,TGI,CCRF-CEM leukemia,> 100 µM
same,TGI,LXFL 529 NSCLC,> 100 µM
same,TGI,M14 melanoma,> 100 µM
same,TGI,DLD-1 colon,> 100 µM
same,TGI,OVCAR-5 ovarian,> 100 µM
same,TGI,SK-OV-3 ovarian,> 100 µM
same,TGI,KM12 colon,> 100 µM
